Consider nine cell lines from the supplement of paper PMC10307832.

What all share (assay): relative viability (nuclei count vs DMSO), 5 days (fraction); higher = more cells survive
Compound in assay [1]: CC1=C(CC(=O)O)c2cc(F)ccc2/C1=C\c1ccc([S+](C)[O-])cc1 [Sulindac] + CCNC(=O)c1noc(-c2cc(C(C)C)c(O)cc2O)c1-c1ccc(CN2CCOCC2)cc1 [Luminespib] (partner 0.01 µM)
In outline: (§1)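 After 5 days of treatment, lung cancer cells in 1536-well plates were fixed and stained in a single step (final 0.05% Triton X-100, 1% formaldehyde, 1 ug/ml Hoechst) and their nuclei counted on 4× images. Treatment had been applied by pin tool the day after seeding as one drug alone or as a fixed anchor-drug dose with five library-drug doses (not always all listed) in √10 steps. Relative viability is the nuclei count of treated wells divided by that of vehicle wells, and values are medians of duplicate plates.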

Compound in assay [2]: CN[C@@H]1C[C@H]2O[C@@](C)([C@@H]1OC)n1c3ccccc3c3c4c(c5c6ccccc6n2c5c31)C(=O)NC4 [Staurosporine] + Cc1cc(Nc2cc(N3CCN(C)CC3)nc(Sc3ccc(NC(=O)C4CC4)cc3)n2)n[nH]1 [Tozasertib] (partner 0.1 µM)
The method, boiled down: as §1

Compound in assay [3]: CN[C@@H]1C[C@H]2O[C@@](C)([C@@H]1OC)n1c3ccccc3c3c4c(c5c6ccccc6n2c5c31)C(=O)NC4 [Staurosporine] + N=C(N)NC(=N)NCCc1ccccc1 [Phenformin] (partner 250 µM)
The method, boiled down: as §1

Compound in assay [4]: CN[C@@H]1C[C@H]2O[C@@](C)([C@@H]1OC)n1c3ccccc3c3c4c(c5c6ccccc6n2c5c31)C(=O)NC4 [Staurosporine] + NC(=O)Nc1cc(-c2cccc(F)c2)sc1C(=O)N[C@H]1CCCNC1 [AZD7762] (partner 0.2 µM)
The method, boiled down: as §1

For the cell line 201T, the relative viability in assay [1] (first compound 0.08 µM) was 1.13; in assay [1] (first compound 0.253 µM), 1.09; in assay [1] (first compound 0.8 µM), 1.07; in assay [1] (first compound 2.53 µM) it was 1.04; in assay [1] (first compound 8 µM), 1.09; in assay [2] (first compound 0.005 µM), 1.06. Further, the relative viability in assay [2] (first compound 0.05 µM) is 0.758; in assay [2] (first compound 0.1581 µM) it was 0.373; in assay [2] (first compound 0.5 µM), 0.31; in assay [3] (first compound 0.005 µM), 0.422; in assay [3] (first compound 0.05 µM), 0.343; in assay [3] (first compound 0.1581 µM) it was 0.266. The relative viability in assay [3] (first compound 0.5 µM) amounted to 0.198; in assay [4] (first compound 0.005 µM), 0.599; in assay [4] (first compound 0.05 µM), 0.498; in assay [4] (first compound 0.1581 µM), 0.579; in assay [4] (first compound 0.5 µM), 0.342.
Take A549: the relative viability in assay [3] (first compound 0.005 µM) worked out at 0.127; in assay [3] (first compound 0.01581 µM), 0.025; in assay [3] (first compound 0.05 µM) it was 0.0465; in assay [3] (first compound 0.1581 µM), 0.031; in assay [3] (first compound 0.5 µM) it was 0.0233.
A-427: the relative viability in assay [1] (first compound 0.08 µM) was 1.05; in assay [1] (first compound 0.253 µM) it was 0.835; in assay [1] (first compound 0.8 µM) it was 1.06; in assay [1] (first compound 2.53 µM), 0.781; in assay [1] (first compound 8 µM), 1.07; in assay [2] (first compound 0.005 µM) it was 0.171. For the same cell line, the relative viability worked out at 0.113 in assay [2] (first compound 0.01581 µM); 0.1 in assay [2] (first compound 0.05 µM); 0.104 in assay [2] (first compound 0.1581 µM); 0.0934 in assay [2] (first compound 0.5 µM); 0.189 in assay [3] (first compound 0.005 µM); 0.114 in assay [3] (first compound 0.01581 µM). Moreover, the relative viability came out at 0.109 in assay [3] (first compound 0.05 µM); 0.0973 in assay [3] (first compound 0.1581 µM); 0.123 in assay [3] (first compound 0.5 µM); 0.545 in assay [4] (first compound 0.005 µM); 0.305 in assay [4] (first compound 0.01581 µM); 0.246 in assay [4] (first compound 0.05 µM). The relative viability in assay [4] (first compound 0.1581 µM) was determined as 0.169; in assay [4] (first compound 0.5 µM) it was 0.142.
Consider ABC-1, for which the relative viability is 0.397 in assay [1] (first compound 0.08 µM); 0.415 in assay [1] (first compound 0.253 µM); 0.687 in assay [1] (first compound 0.8 µM); 0.71 in assay [1] (first compound 8 µM); 0.134 in assay [2] (first compound 0.005 µM); 0.104 in assay [2] (first compound 0.01581 µM). Moreover, the relative viability amounted to 0.125 in assay [2] (first compound 0.05 µM); 0.111 in assay [2] (first compound 0.1581 µM); 0.111 in assay [2] (first compound 0.5 µM); 0.169 in assay [3] (first compound 0.005 µM); 0.205 in assay [3] (first compound 0.01581 µM); 0.0951 in assay [3] (first compound 0.05 µM). Besides, the relative viability turned out to be 0.0728 in assay [3] (first compound 0.1581 µM); 0.105 in assay [3] (first compound 0.5 µM); 0.3 in assay [4] (first compound 0.005 µM); 0.496 in assay [4] (first compound 0.01581 µM); 0.393 in assay [4] (first compound 0.05 µM); 0.642 in assay [4] (first compound 0.1581 µM). In addition, in assay [4] (first compound 0.5 µM), the relative viability turned out to be 0.0806.
Consider BEN, for which the relative viability in assay [1] (first compound 0.08 µM) was 0.23; in assay [1] (first compound 0.253 µM) it was 0.373; in assay [1] (first compound 0.8 µM), 0.597; in assay [1] (first compound 2.53 µM), 0.472; in assay [1] (first compound 8 µM), 0.326; in assay [2] (first compound 0.005 µM) it was 0.587. The relative viability amounted to 0.743 in assay [2] (first compound 0.01581 µM); 0.484 in assay [2] (first compound 0.05 µM); 0.434 in assay [2] (first compound 0.1581 µM); 0.325 in assay [2] (first compound 0.5 µM); 0.247 in assay [3] (first compound 0.005 µM); 0.211 in assay [3] (first compound 0.05 µM). Besides, the relative viability in assay [3] (first compound 0.1581 µM) was found to be 0.197; in assay [3] (first compound 0.5 µM), 0.184; in assay [4] (first compound 0.005 µM) it was 0.946; in assay [4] (first compound 0.01581 µM) it was 0.776; in assay [4] (first compound 0.05 µM), 0.761; in assay [4] (first compound 0.1581 µM), 0.316. For the same cell line, the relative viability in assay [4] (first compound 0.5 µM) stood at 0.294.
As to CAL-12T, the relative viability in assay [1] (first compound 0.08 µM) amounted to 0.556; in assay [1] (first compound 0.253 µM), 0.3; in assay [1] (first compound 0.8 µM) it was 0.311; in assay [1] (first compound 2.53 µM) it was 0.485; in assay [1] (first compound 8 µM) it was 0.524; in assay [2] (first compound 0.005 µM) it was 0.146. In addition, the relative viability in assay [2] (first compound 0.01581 µM) was 0.117; in assay [2] (first compound 0.05 µM), 0.101; in assay [2] (first compound 0.1581 µM), 0.132; in assay [2] (first compound 0.5 µM), 0.0975; in assay [3] (first compound 0.005 µM), 0.205; in assay [3] (first compound 0.01581 µM), 0.165. Besides, the relative viability was 0.235 in assay [3] (first compound 0.05 µM); 0.103 in assay [3] (first compound 0.1581 µM); 0.112 in assay [3] (first compound 0.5 µM); 0.416 in assay [4] (first compound 0.005 µM); 0.338 in assay [4] (first compound 0.01581 µM); 0.409 in assay [4] (first compound 0.05 µM). The figures for the relative viability in assay [4] (first compound 0.1581 µM) and in assay [4] (first compound 0.5 µM) were 0.257 and 0.167, respectively.
For COR-L23, the relative viability in assay [1] (first compound 0.08 µM) was 0.903; in assay [1] (first compound 0.253 µM), 0.555; in assay [1] (first compound 0.8 µM), 0.508; in assay [1] (first compound 2.53 µM) it was 0.739; in assay [1] (first compound 8 µM), 0.952; in assay [2] (first compound 0.005 µM), 0.102. Besides, the relative viability in assay [2] (first compound 0.01581 µM) is 0.112; in assay [2] (first compound 0.05 µM), 0.0926; in assay [2] (first compound 0.1581 µM), 0.0869; in assay [2] (first compound 0.5 µM) it was 0.0647; in assay [3] (first compound 0.005 µM) it was 0.243; in assay [3] (first compound 0.01581 µM), 0.18. In addition, the relative viability in assay [3] (first compound 0.05 µM) amounted to 0.14; in assay [3] (first compound 0.1581 µM) it was 0.0737; in assay [3] (first compound 0.5 µM), 0.0585.
Turning to COR-L 105, the relative viability in assay [1] (first compound 0.08 µM) was 0.677; in assay [1] (first compound 0.253 µM), 0.66; in assay [1] (first compound 0.8 µM), 0.724; in assay [1] (first compound 2.53 µM), 0.793; in assay [1] (first compound 8 µM), 0.792; in assay [2] (first compound 0.005 µM) it was 0.253. The relative viability is 0.26 in assay [2] (first compound 0.01581 µM); 0.245 in assay [2] (first compound 0.05 µM); 0.237 in assay [2] (first compound 0.1581 µM); 0.229 in assay [2] (first compound 0.5 µM); 0.312 in assay [3] (first compound 0.005 µM); 0.217 in assay [3] (first compound 0.01581 µM). Besides, the relative viability in assay [3] (first compound 0.05 µM) stood at 0.176; in assay [3] (first compound 0.1581 µM), 0.207; in assay [3] (first compound 0.5 µM), 0.181.
Take ChaGo-K-1: the relative viability in assay [1] (first compound 0.08 µM) worked out at 0.526; in assay [1] (first compound 0.253 µM), 0.584; in assay [1] (first compound 0.8 µM), 0.637; in assay [1] (first compound 2.53 µM), 0.587; in assay [1] (first compound 8 µM), 0.405; in assay [2] (first compound 0.005 µM), 0.202. The relative viability was determined as 0.181 in assay [2] (first compound 0.01581 µM); 0.162 in assay [2] (first compound 0.05 µM); 0.145 in assay [2] (first compound 0.1581 µM); 0.157 in assay [2] (first compound 0.5 µM); 0.461 in assay [3] (first compound 0.005 µM); 0.233 in assay [3] (first compound 0.01581 µM). Further, the relative viability in assay [3] (first compound 0.05 µM) was found to be 0.351; in assay [3] (first compound 0.1581 µM) it was 0.158; in assay [3] (first compound 0.5 µM), 0.123; in assay [4] (first compound 0.005 µM), 0.912; in assay [4] (first compound 0.05 µM), 0.615; in assay [4] (first compound 0.1581 µM), 0.148. Also, the relative viability in assay [4] (first compound 0.5 µM) is 0.135.
